In patent publication US20170306090A1, “METHOD FOR MAKING POLYCARBONATE USING A LIQUID KETONE MIXTURE” (SABIC Global Technologies B.V., priority 2014, published 2017):

Experiment: Solubility of diphenyl carbonate in various ketones (gravimetric method)
[1] = Example 1, Temperature 70 °C, molar ratio of ketone to DPC 1:1
[2] = Example 2, Temperature 50 °C, molar ratio of ketone to DPC 1:1
[3] = Example 3, Temperature 50 °C, molar ratio of ketone to DPC 1.5:1
[4] = Example 4, Temperature 25 °C, molar ratio of ketone to DPC 1:1
[5] = Example 5, Temperature 25 °C, molar ratio of ketone to DPC 1.5:1
[6] = Example 6, Temperature 25 °C, molar ratio of ketone to DPC 2:1

Procedure: The solubility of diphenyl carbonate in various ketones was determined. Solubility was determined based on a gravimetric method.

| Solubility of diphenyl carbonate in the ketone [1] | Solubility of diphenyl carbonate in the ketone [2] | Solubility of diphenyl carbonate in the ketone [3] | Solubility of diphenyl carbonate in the ketone [4] | Solubility of diphenyl carbonate in the ketone [5] | Solubility of diphenyl carbonate in the ketone [6] | Structure (SMILES) |
| --- | --- | --- | --- | --- | --- | --- |
| Yes | No | Yes | No | No | No | CC(=O)CC(C)C [MIBK, methyl isobutyl ketone] |
| Yes | No | Yes | No | No | Yes | CCC(=O)CC [Diethyl ketone, diethyl ketone] |
